“Also recorded” adds a separate entry of the source. Like-named read-outs stand apart in the source and are kept apart here. Marks after values point to notes of the source that are not given here.
Tests used:
[1] = Clinical pharmacokinetics of pazopanib; format: in vivo; details: human, IV 20 mg/subject, extrapolated
[2] = 800 mg orally once daily in cancer patients; cited from earlier work
[3] = cited from earlier work; for AUC / Cmax: human
ERK phosphorylation = ERK phosphorylation in mouse neutrophils; format: cell-based
Method: (§1) Mouse bone marrow neutrophils were isolated from long bones. After lysis of red blood cells (RBCs) with ACK buffer (155 mM NH4Cl, 10 mM KHCO3 and 127 μM EDTA), bone marrow cells were separated on a discontinuous Percoll gradient composed of 81%, 62%, and 45% Percoll. Neutrophils were collected at the interphase between 81% and 62% Percoll, washed in HBSS, and used for assays.

in vivo = details: monkey, iv; for AUC(0-inf) / Cmax: 10 mg/kg/day
LPS-induced ALI = test: LPS-induced acute lung injury mouse model; format: in vivo
[4] = tested on: p47^phox phosphorylation at Ser-208; test: Western analysis of p47^phox Ser-208 phosphorylation in fMLP-stimulated neutrophils; format: cell-based; details: fMLP (1 μM) stimulated mouse neutrophils
Method: as §1

[5] = tested on: murine hepatitis virus strain 1 (MHV-1); test: Pazopanib IV in the MHV-1 mouse model; format: in vivo, A/J mice
Method: The murine hepatitis virus strain 1 (MHV-1) model was adopted for the pharmacology study. All MHV-1-infected A/J mice developed progressive interstitial edema, neutrophil/macrophage infiltrates, and hyaline membranes, leading to the death of all mice. Two studies have been completed to date. In the first one, mice were administered a 3-dose regimen of the study intervention at 6, 21, and 32 hours after virus inoculation. In the second, mice were administered a 2-dose regimen at 24 and 33 hours after inoculation.
A/J mice, 8 to 10 weeks old, were anaesthetized by Ketamine/Xylazine (100 and 10 mg/kg) and were kept under anesthesia during the whole procedure using Ketamine/Xylazine. After being deeply anesthetized (assessed by applying a noxious stimulus, e.g., toe pinch, and observing no reflex response and no change in either the rate or character of respiration), mice received an intranasal inoculation of 5000 PFU MHV-1 in 20 μL Dulbecco's modified Eagle's medium. After the administration, the mice were monitored until their breathing gradually returned to normal. Then the mice were returned to the recovery cage on the heating pad and monitored for their anesthesia status. […] The green fluorescence of BAL was measured by the plate reader. BAL fluorescence intensities from pazopanib-treated mice were normalized to the intensities from vehicle-control-treated mice wherein higher intensity corresponds to greater permeability.
A/J mice, 8-10 weeks old, were anaesthetized by Ketamine/Xylazine (100 and 10 mg/kg) and were kept under anesthesia during the whole procedure using Ketamine/Xylazine. After being deeply anesthetized (assessed by applying a noxious stimulus, e.g., toe pinch, and observing no reflex response and no change in either the rate or character of respiration), mice received an intranasal inoculation of 6000 PFU MHV-1 in 20 μL Dulbecco's modified Eagle's medium. After the administration, the mice were monitored until their breathing gradually returned to normal. Then the mice were returned to the recovery cage on the heating pad and monitored for their anesthesia status. […]

human neutrophils = test: ROS production assay in human neutrophils; format: cell-based; details: 100 nM fMLP
Method: (§2) For measurement of extracellular ROS release, isolated neutrophils were placed in the reaction buffer (0.25% BSA in HBSS with Ca^2+ and Mg^2+, 10 mM Isoluminol, 100 u/ml HRP) and stimulated with fMLP or PMA. For measurement of total ROS production, neutrophils were incubated with the reaction buffer (0.25% BSA in HBSS with Ca^2+ and Mg^2+, 10 mM Luminol, 100 u/ml HRP), followed with stimulations. Chemiluminescence was read continuously in a plate reader (Perkin Elmer). For reconstituted ROS production system in COS-7 cells, PMA (2 μM) was used for stimulation.
Buffy coat of human blood samples were subjected to neutrophil enrichment using the EasySep Human Neutrophil Enrichment Kit (Stemceli Technologies) according to manufacturer's protocol. Briefly, the depletion antibody cocktail was mixed with the buffy coat followed by incubation with magnetic particles. The EasySep Magnet was then used to immobilize unwanted cells as the label-free neutrophils were poured into another conical tube. Enriched neutrophils were pelleted and resuspended in an assay buffer (Hanks buffer with Ca^2+ and Mg^2+, 0.25% BSA) for ROS production assay or Western analysis.

mouse neutrophils = test: ROS release assay in mouse neutrophils; format: cell-based; details: fMLP (1 μM)
Method: as §1, §2

[6] = IV toxicology and toxicokinetic studies in rats; details: for safety margin based on Cmax: vs Cmax 3.4 μg/mL in man (20 mg IV)
[7] = IV administration 5 mg/subject (N=7)
[8] = oral, reported with bioavailability
[9] = therapeutic modality, intranasally post injury induction
[10] = rat, 5 days, IV 20 minute infusion

For `Cc1ccc(Nc2nccc(N(C)c3ccc4c(C)n(C)nc4c3)n2)cc1S(N)(=O)=O` [pazopanib, 5-((4-((2,3-dimethyl-2H-indazol-6-yl)(methyl)amino)pyrimidin-2-yl)amino)-2-methylbenzenesulfonamide], the “AUC(0-∞), assuming dose-linearity” value [1] was 81.6^a μg·h/mL, the “Cmax, assuming dose-linearity” value [1] was 3.4^a μg/mL and the AUC(0-inf) ([1]; in vivo, read-out: AUC(0-∞), assuming dose-linearity) was 81.6 µg·h/mL. The Cmax ([1]; in vivo, read-out: Cmax, assuming dose-linearity) was 3.4 µg/mL, the tolerability [2] was “well-tolerated” and the AUC [3, 7] was 20.4 µg·h/mL. The Cmax [3, 7] was 0.848 µg/mL, the AUC [3, 8] was 806 µg·h/mL and the Cmax [3, 8] was 43.9 µg/mL. The “half-life (t1/2)” value ([3]; in man) was 27.5 h, the ERK phosphorylation (ERK phosphorylation) was “did not affect” and the AUC(0-inf) (in vivo; female) was 167 µg·h/mL. For the same compound, the Cmax (in vivo; female) was 80 µg/mL, the AUC(0-inf) (in vivo; male) was 143 µg·h/mL and the Cmax (in vivo; male) was 85 µg/mL. For the same compound, the NOAEL at 2 weeks (in vivo; NOAEL (no observed adverse effect level), monkeys, 2-week GLP IV infusion (20-minute)) was 10 mg/kg/day, the NOAEL at 5 days (in vivo; NOAEL, 5 days, IV 20 minute infusion) was 30 mg/kg and the NOAEL at 14 days (in vivo; NOAEL, 14 days, IV 20 minute infusion) was 10 mg/kg. For the same compound, the mortality (LPS-induced ALI; prophylactic, orally prior to injury) was “reduced”, the mortality (LPS-induced ALI; [9]) was “significant reductions; also recorded: reduces mortality” and the perivascular interstitial edema (LPS-induced ALI; [9]) was “significant reductions”. For the same compound, the “p47^phox phosphorylation at Ser-208 in neutrophils” value [4] was “inhibit p47^phox phosphorylation at Ser-208; also recorded: inhibits phosphorylation of Ser-208 of p47^phox”, the “projected clinical efficacious dose” value ([5]; assuming 70 kg human) was “approximately 16.8 mg” and the “human equivalent dose of efficacious dose” value ([5]; from 3 mg/kg in mouse) was 0.24 mg/kg. The efficacious dose ([5]; mouse coronavirus-induced lung injury model) was “approximately 3 mg/kg”, the ROS production (human neutrophils) was “increases ROS production” and the ROS production (mouse neutrophils; WT mouse neutrophils) was “increases in ROS production”. The ROS production (mouse neutrophils; WT mouse neutrophils, listed as Pazopanib) was “increases ROS release”, the ROS production (mouse neutrophils; p47^phox-KI neutrophils, 20 nM pazopanib) was “failed to elevate ROS production” and the “margin of safety based on AUC values” (2-week rat and monkey studies) was less than 10 fold. The “safety margin based on Cmax” value (female monkeys) was 23 fold, the “safety margin based on Cmax” value (male monkeys) was 25 fold and the “HED for 70 kg human” value (monkey, 2-week study) was 224 mg. For the same compound, the Margin of safety (monkey, 5 days, IV 20 minute infusion, clinical dose 20 mg/day or 0.29 mg/kg) was 33.1X, the t1/2 (monkeys) was “a few hours” and the Margin of safety ([6]; 2-week rat study vs 20 mg clinical starting dose) was 5.6 fold. For the same compound, the “safety margin based on Cmax” value ([6]; female rats) was 16.2 fold, the “safety margin based on Cmax” value ([6]; male rats) was 13.8 fold and the “HED for 70 kg human” value ([6]; rat, 2-week study) was 112 mg. The “HED of NOAEL” value [6, 10] was 8 mg/kg, the NOAEL [6, 10] was 50 mg/kg and the Margin of safety ([6]; rat, 5 days, IV 20 minute infusion, clinical dose 20 mg/day or 0.29 mg/kg) was 27.6X. The Margin of safety ([6]; rat, 14 days, IV 20 minute infusion, clinical dose 20 mg/day or 0.29 mg/kg) was 5.6X, the t1/2 ([6]; rat, in vivo) was “a few hours” and the “HED of NOAEL” value ([6]; rat, single dose, IV bolus) was 4.8 mg/kg. The Margin of safety ([6]; rat, single dose, IV bolus, clinical dose 20 mg/day or 0.29 mg/kg) was 16.6X.

— patent publication US20230026808A1, “COMPOUNDS, COMPOSITIONS, AND METHODS FOR TREATING ISCHEMIA-REPERFUSION INJURY AND/OR LUNG INJURY” (YALE UNIVERSITY, priority 2019, published 2023)
